Like-named read-outs stand apart in the source and are kept apart here.
Key:
[1] = tested on: human colorectal cancer cell line, COLO-320DM; assay: Cell proliferation inhibitory activity test (Celltiter-Glo Luminescent Cell Viability Assay); type: cell-based; details: COLO-320DM cells, 96 hours, class symbols, read-out: COLO-320 DM (cell proliferation inhibitory activity, GI50 value)
Procedure, shortened: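 Cells grown in RPMI-1640 with 10% FBS and 2 mM glutamine, seeded overnight, then exposed to compound (1% DMSO final) for 96 h at 37° C., 5% CO2. Viability read by ATP luminescence; GI50 is the concentration reducing cell growth to 50% of DMSO control.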

tankyrase 1 (TNKS 1) = target: T1, tankyrase 1 (TNKS 1) (Homo sapiens, UniProt O95271); assay: Tankyrase inhibitory activity test (ELISA, self-polyADP ribosylation), tankyrase 1; type: biochemical
T1 construct: 1,024-1,327aa; made in house; host or cells: cell-free protein synthesis system
T1 sequence (O95271 1024-1327): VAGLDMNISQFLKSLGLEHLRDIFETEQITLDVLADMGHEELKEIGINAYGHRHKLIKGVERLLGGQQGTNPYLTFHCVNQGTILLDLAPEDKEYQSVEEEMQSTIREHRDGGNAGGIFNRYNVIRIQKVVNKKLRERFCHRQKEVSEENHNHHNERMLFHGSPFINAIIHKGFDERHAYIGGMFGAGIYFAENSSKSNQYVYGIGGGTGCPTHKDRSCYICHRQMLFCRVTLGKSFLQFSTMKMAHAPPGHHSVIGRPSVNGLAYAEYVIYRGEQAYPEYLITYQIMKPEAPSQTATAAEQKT
Procedure, shortened: (§1)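 Flag-tagged TNKS1 (1,024-1,327aa, SAM+PARP) and TNKS2 (613-1,116aa, ANK5+SAM+PARP) were made cell-free and captured overnight at 4 °C on anti-FLAG M2 plates. After 10 min compound preincubation in Tris pH 8.0/MgCl2/DTT buffer, NAD (225 μM) plus biotin-NAD (25 μM) solution was added for 45 min at 30 °C. Auto-PARylation was read by streptavidin-HRP chemiluminescence, giving IC50 from residual activity.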

tankyrase 2 (TNKS 2) = target: T2, tankyrase 2 (TNKS 2) (Homo sapiens, UniProt Q9H2K2); assay: Tankyrase inhibitory activity test (ELISA, self-polyADP ribosylation), tankyrase 2; type: biochemical
T2 construct: 613-1, 116aa; made in house; host or cells: cell-free protein synthesis system
T2 sequence (Q9H2K2 613-1166): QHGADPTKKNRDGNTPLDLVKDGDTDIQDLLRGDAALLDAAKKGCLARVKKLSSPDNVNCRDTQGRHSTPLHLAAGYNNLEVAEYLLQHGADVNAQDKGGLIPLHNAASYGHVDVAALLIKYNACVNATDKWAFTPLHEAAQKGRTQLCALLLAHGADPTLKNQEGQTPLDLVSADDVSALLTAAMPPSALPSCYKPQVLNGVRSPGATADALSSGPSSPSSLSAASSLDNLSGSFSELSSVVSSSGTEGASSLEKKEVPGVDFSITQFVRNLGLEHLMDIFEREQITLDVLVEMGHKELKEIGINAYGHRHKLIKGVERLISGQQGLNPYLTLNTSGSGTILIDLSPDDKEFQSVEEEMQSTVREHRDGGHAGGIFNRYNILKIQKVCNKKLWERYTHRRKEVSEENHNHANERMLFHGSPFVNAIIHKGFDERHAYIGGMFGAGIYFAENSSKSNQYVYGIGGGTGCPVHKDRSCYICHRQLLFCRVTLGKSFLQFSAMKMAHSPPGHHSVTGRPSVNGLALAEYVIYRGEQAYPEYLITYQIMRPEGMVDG
Procedure, shortened: as §1

[2] = ELISA, self-polyADP ribosylation, class symbols, read-out: TNKS1 (inhibitory activity against tankyrase 1, IC50 value)
[3] = ELISA, self-polyADP ribosylation, class symbols, read-out: TNKS2 (inhibitory activity against tankyrase 2, IC50 value)

Compound	GI50 [1]	IC50 (tankyrase 1 (TNKS 1); [2])	IC50 (tankyrase 2 (TNKS 2); [3])	IC50 (tankyrase 1 (TNKS 1))	IC50 (tankyrase 2 (TNKS 2))
CN1CCCc2c1nc(N1CCC3(CC1)OC(=O)c1cc(N4CCN(C(C)(C)C)CC4)cc(F)c13)[nH]c2=O [Example 434, 6-(4-tert-butylpipera-zin-1-yl)-4-fluoro-1′-(4-hydroxy-8-methyl-6,7-dihydro-5H-pyrido [2,3-d]pyrimidin-2-yl) spiro[2,3-benzofuran-3,4′-piperidine]-1-one]	600 to 1000 nM	< 20 nM	< 20 nM		
N#CCOc1cc(F)c2c(c1)N(CC(F)(F)F)C(=O)C21CCN(c2nc3c(c(=O)[nH]2)CCCN3)CC1 [Example 435, 2-[4-fluoro-2-oxo-1′-(4-oxo-3,4,5,6,7-hex-ahydropyrido[2,3-d]pyrimidin-2-yl)-1-(2,2,2-trifluoroethyl)spiro [indole-3,4′-piperidine]-6-yl]oxyacetonitrile]	100 to 600 nM	< 20 nM	< 20 nM		
CN1CCCc2c1nc(N1CCC3(CC1)C(=O)N(C)c1c(OCCNC(C)(C)C)ccc(F)c13)[nH]c2=O [Example 437, 7-[2-(tert-butylamino)ethoxy]-4-fluoro-1′-(4-hydroxy-8-methyl-6,7-dihydro-5H-pyrido [2,3-d]pyrimidin-2-yl)-1-methylspiro[indole-3,4′-piperidine]-2-one]	100 to 600 nM	20 to 200 nM	20 to 200 nM		
CN1C(=O)C2(CCN(c3nc4c(c(=O)[nH]3)CCCN4)CC2)c2c(Cl)ccc(OC3CCOC3)c21 (stereo not drawn) [Example 438, 4-chloro-1′-(4-oxo-3,4,5,6,7,8-hexahydro-pyrido[2,3-d]pyrimidin-2-yl)-1-methyl-7-(oxo-lan-3-yloxy)spiro [indole-3,4′-piperidine]-2-one]	600 to 1000 nM	< 20 nM	< 20 nM		
CN1CCCc2c1nc(N1CCC3(CC1)OC(=O)c1cc(N4CCN(CC(C)(C)O)CC4)cc(F)c13)[nH]c2=O [Example 439, 4-fluoro-1′-(4-hydroxy-8-methyl-6,7-dihydro-5H-pyrido[2,3-d]pyrimidin-2-yl)-6-[4-(2-hydroxy-2-methyl-propyl)piperazin-1-yl] spiro[2,3-benzofuran-3,4′-piperidine]-1-one]	100 to 600 nM	< 20 nM	< 20 nM		
COc1ccc(Cl)c2c1N(CCN1CCN(C(C)=O)CC1)C(=O)C21CCN(c2nc3c(c(=O)[nH]2)CCCN3C)CC1 [Example 441, 1-[2-(4-acetylpiper-azin-1-yl)ethyl]-4-chloro-1′-(4-hy-droxy-8-methyl-6,7-dihydro-5H-py-rido[2,3-d]pyrimi-din-2-yl)-7-methoxy-spiro[indole-3,4′-piperidine]-2-one]	100 to 600 nM	20 to 200 nM	< 20 nM		
COc1ccc(Cl)c2c1N(CC(F)(F)F)C(=O)C21CCN(c2nc3c(c(=O)[nH]2)CCCN3)CC1 [Example 443, 4-chloro-1′-(4-hy-droxy-3,5,6,7,8-tetra-hydropyrido[2,3-d]pyrimidin-2-yl)-7-methoxy-1-(2,2,2-trifluoroeth-yl)spiro[indole-3,4′-piperidine]-2-one]	600 to 1000 nM	< 20 nM	< 20 nM		
COc1ccc(Cl)c2c1N(CCC(=O)N1CCn3c(C(F)(F)F)cnc3C1)C(=O)C21CCN(c2nc3c(c(=O)[nH]2)CCCN3C)CC1 [Example 445, 4-chloro-1′-(4-hy-droxy-8-methyl-6,7-dihdyro-5H-py-rido[2,3-d]pyrimi-din-2-yl)-7-meth-oxy-1-[3-oxo-3-[3-(trifluoromethyl)-6,8-dihydro-5H-imidazo[1,2-a]py-razin-7-yl]propyl] spiro[indole-3,4′-piperidine]-2-one]	100 to 600 nM	< 20 nM	< 20 nM		
COc1ccc(Cl)c2c1N(CC(C)(C)O)C(=O)C21CCN(c2nc3c(c(=O)[nH]2)CCCN3C)CC1 [Example 446, 4-chloro-1′-(4-hy-droxy-8-methyl-6,7-dihydro-5H-py-rido[2,3-d]pyrimi-din-2-yl)-1-(2-hy-droxy-2-methyl-propyl)-7-methoxy-spiro[indole-3,4′-piperidine]-2-one]	< 100 nM	< 20 nM	< 20 nM		
COc1ccc(Cl)c2c1N(CC(C)(C)O)C(=O)C21CCN(c2nc3c(c(=O)[nH]2)CCCN3)CC1 [Example 448]	100 to 600 nM	< 20 nM	< 20 nM		

Further lines, results first:

GI50 [1]	IC50 (tankyrase 1 (TNKS 1); [2])	IC50 (tankyrase 2 (TNKS 2); [3])	IC50 (tankyrase 1 (TNKS 1))	IC50 (tankyrase 2 (TNKS 2))	Compound
100 to 600 nM	< 20 nM	< 20 nM			CN1CCCc2c1nc(N1CCC3(CC1)OC(=O)c1cc(N4CCN(CCO)CC4)cc(F)c13)[nH]c2=O [Example 440, 4-fluoro-6-[4-(2-hydroxyethyl)piper-azin-1-yl]-1′-(4-hydroxy-8-methyl-6,7-dihydro-5H-pyrido[2,3-d]pyrimi-din-2-yl)spiro[2-benzofuran-3,4′-piperidine]-1-one]
600 to 1000 nM			20 to 200 nM	20 to 200 nM	CN1CCCc2c1nc(N1CCC3(CC1)C(=O)N(C)c1cc(OCP(=O)(O)O)cc(F)c13)[nH]c2=O [Example 442, ({[4-fluoro-1-methyl-1′-(8-methyl-4-oxo-3,4,5,6,7,8-hexahydropyrido[2,3-d]pyrimidin-2-yl)-2-oxospiro[indoline-3,4′-piperidine]-6-yl]oxy}methyl) phosphonic Acid]
100 to 600 nM	20 to 200 nM	20 to 200 nM			CN1CCN(c2ccc(-c3cc(F)c4c(c3)C(=O)OC43CCN(c4nc5c(c(=O)[nH]4)CCCN5C)CC3)cc2)CC1 [Example 444, 4-fluoro-1′-(4-hy-droxy-8-methyl-6,7-dihydro-5H-pyrido [2,3-d]pyrimidin-2-yl)-6-[4-(4-meth-ylpiperazin-1-yl)phenyl]spiro[2-benzofuran-3,4′-piperidine]-1-one]
< 100 nM	< 20 nM	< 20 nM			CN1CCCc2c1nc(N1CCC3(CC1)C(=O)N(CC(C)(C)O)c1cccc(F)c13)[nH]c2=O [Example 447, 4-fluoro-1′-(4-hy-droxy-8-methyl-6,7-dihydro-5H-py-rido[2,3-d]pyrimidin-2-yl)-1-(2-hydroxy-2-methylpro-pyl)spiro[indole-3,4′-piperidine]-2-one]
100 to 600 nM	20 to 200 nM	20 to 200 nM			CN(C)c1ccc(-c2cc(F)c3c(c2)C(=O)OC32CCN(c3nc4c(c(=O)[nH]3)CCCN4C)CC2)cc1 [Example 449, 6-[4-(dimethylami-no)phenyl]-4-fluoro-1′-(4-hydroxy-8-methyl-6,7-di-hydro-5H-pyrido[2,3-d]pyrimidin-2-yl)spiro[2-benzo-furan-3,4′-piperidine]-1-one]
< 100 nM	< 20 nM	< 20 nM			CN1CCCc2c1nc(N1CCC3(CC1)OC(=O)c1cc(-c4cnn(C)c4)cc(F)c13)[nH]c2=O [Example 450, 4-fluoro-1′-(4-hy-droxy-8-methyl-6,7-dihydro-5H-py-rido[2,3-d]pyrimidin-2-yl)-6-(1-meth-ylpyrazol-4-yl)spiro [2-benzofuran-3,4′-piperidine]-1-one]
100 to 600 nM	< 20 nM	< 20 nM			O=C1N(CC(F)(F)F)c2cccc(F)c2C12CCN(c1nc3c(c(=O)[nH]1)CCCN3)CC2 [Example 451, 4-fluoro-1′-(4-hy-droxy-5,6,7,8-tetra-hydropyrido[2,3-d]pyrimidin-2-yl)-1-(2,2,2-trifluoro-ethyl)spiro[indole-3,4′-piperidine]-2-one]
100 to 600 nM	20 to 200 nM	< 20 nM			CC(C)(O)CN1C(=O)C2(CCN(c3nc4c(c(=O)[nH]3)CCCN4)CC2)c2c(F)cccc21 [Example 452, 4-fluoro-1-(2-hy-droxy-2-methyl-propyl)-1′-(4-hydroxy-5,6,7,8-tetra-hydropyrido[2,3-d]pyrimidin-2-yl)spiro [indole-3,4′-piper-idine]-2-one]
100 to 600 nM	< 20 nM	< 20 nM			CNS(=O)(=O)COc1cc(F)c2c(c1)N(C)C(=O)C21CCN(c2nc3c(c(=O)[nH]2)CCCN3C)CC1 [Example 453, 1-{[4-fluoro-1-meth-yl-1′-(8-methyl-4-oxo-3,4,5,6,7,8-hexahydropyrido [2,3-d]pyrimidin-2-yl)-2-oxospiro [indole-3,4′-piperi-dine]-6-yl]oxy}-N-methylmethane sulfonamide]
100 to 600 nM	< 20 nM	< 20 nM			CN1CCCc2c1nc(N1CCC3(CC1)C(=O)N(C)c1cc(OCS(N)(=O)=O)cc(F)c13)[nH]c2=O [Example 454, 1-{[4-fluoro-1-meth-yl-1′-(8-methyl-4-oxo-3,4,5,6,7,8-hexahydropyrido [2,3-d]pyrimidin-2-yl)-2-oxospiro[indole-3,4′-piperidine]-6-yl]oxy}meth-anesulfonamide]
100 to 600 nM	< 20 nM	< 20 nM			CN1CCCc2c1nc(N1CCC3(CC1)C(=O)N(C)c1cc(N4CCS(=O)(=O)CC4)cc(F)c13)[nH]c2=O [Example 455, 6-(1,1-dioxdothio-morpholino)-4-fluoro-1-methyl-1′-(8-methyl-4-oxo-3,4,5,6,7,8-hexa-hydropyrido[2,3-d]pyrimidin-2-yl)spiro [indole-3,4′-piperi-dine]-2-one]

Reference: patent US11414429B2, “Compound or pharmaceutically acceptable salt thereof” (RIKEN, priority 2016, dated 2022)
